The record followed here is ChEMBL document CHEMBL1147279, “6-Desmethoxyhormothamnione, a new cytotoxic styrylchromone from the marine cryptophyte Chrysophaeum taylori” (1989).

Converted amounts (≈) assume the structure as drawn. The source made the active and inactive calls. No cut-off for these calls is given here.

Assay [1] is described as follows: Cytotoxicity against human 9KB cells. The conditions noted are these: read-out: LD50 (the source's name). The class given is functional.
The test system of the next assay is Staphylococcus aureus. In words: Antimicrobial activity against Staphylococcus aureus at 100 ug by paper disk assay. The class given is functional, organism-based.
A further assay has as its system Escherichia coli. Description: Antimicrobial activity against Escherichia coli at 100 ug by paper disk assay. The class given is functional, organism-based.
The next assay relates to Pseudomonas aeruginosa. In words: Antimicrobial activity against Pseudomonas aeruginosa at 100 ug by paper disk assay. The assay is classed as functional, organism-based.
For a further assay, the system named is Candida albicans. Description: Antimicrobial activity against Candida albicans at 100 ug by paper disk assay. The assay is classed as functional, organism-based.
The test system of the next assay is Bacillus subtilis. Description: Antimicrobial activity against Bacillus subtilis at 100 ug by paper disk assay. The assay is classed as functional, organism-based.

In the case of `COc1cc(O)c2c(=O)c(C)c(/C=C/c3cc(O)cc(O)c3)oc2c1OC`, the CC50 in assay [1] stood at 1 µg/mL (≈ 2.7 µM). The result in the assay on Staphylococcus aureus, with Escherichia coli, with Pseudomonas aeruginosa, with Candida albicans and with Bacillus subtilis was inactive.
